Laboratory results published in patent publication US20190314198A1, “Topical Ocular Delivery Methods and Devices for Use in the Same” (Kedalion Therapeutics, Inc., priority 2018, published 2019).

Experiments:
[1] = tested on: patients diagnosed with primary open angle glaucoma; test: Trial 2: intraocular pressure reduction (Goldmann applanation tonometry), AcuStream versus standard eye dropper; type: in vivo, human
Experimental: Trial 2 compared the efficacy (dose volume equivalence) of 0.005% w/v latanoprost for intraocular pressure reduction when delivered via AcuStream™ (pre-trial calibration volume=9.2 μl) versus the standard eye dropper for topical drug delivery (approximate volume=30 μl).
Patients included in Trial 2 have previously been diagnosed with primary open angle glaucoma on the basis of intraocular pressure and visual field testing, fundus examination or optical coherence tomography (OCT) data and are currently on prostaglandin analog medical therapy. Patients with corneal abnormalities that would interfere with accurate IOP measurements with applanation tonometry, use of an oral or topical ophthalmic steroids within the past 14 days from screening date, any active ocular surface or anterior segment disease, or progressive field loss during the past year were excluded from the study. Thirteen men and five women participated in the trial. […]
After performing slit lamp examinations on each patient to verify eligibility and obtaining informed consent, intraocular pressure (IOP) was measured by a sole experienced examiner who was blind to the randomized conditions. […]
Latanoprost solution was administered by a sole ophthalmologist to both eyes of each patient, based on the pre-determined randomized condition.

eye of subjects = test: Presbyopia: pupil diameter after self-administered pilocarpine micro-dose; type: in vivo, human
Experimental: A 10 μl micro-dose of a 1% pilocarpine solution was self-administered using an electromagnetic actuated fluid delivery device, e.g., as described above, by three subjects to their own eye. The age range of the subjects was 52 years to 68 years, and all subjects were male. The pilocarpine micro-dose was self-administered by the subjects.
Baseline, pre-dose values of pupil diameter and near visual acuity in both eyes prior to dosing was measured for all subjects, and then following the baseline measurements, the subjects were dosed in only one eye (the eye with the poorer visual acuity) with the micro-dose pilocarpine solution. Approximately 45 to 60 minutes after dosing, pupil diameter and near visual acuity were again tested. Near visual acuity was measured using a Snellen card at a distance of 40 cm. A tabulation of results is given below in Table A.

`CC(C)OC(=O)CCC/C=C\C[C@@H]1[C@@H](CC[C@@H](O)CCc2ccccc2)[C@H](O)C[C@@H]1O` [latanoprost] was tested, and the “difference in IOP reduction between AcuStream and standard dropper groups” value ([1]; Wilcoxon Ranked Sum test, p=0.3447) was “no statistically significant differences” and the “post-instillation IOP of a single patient outlier (OD)” value ([1]; control group (standard eye dropper), baseline IOP 30 mm Hg) was 17 mm Hg.

With `CC[C@@H]1C(=O)OC[C@@H]1Cc1cncn1C` [pilocarpine] the “mean reduction in pupil diameter” value (eye of subjects; dosed eye, 10 μl micro-dose of 1% solution, all 3 subjects) was 0.70 mm and the “miotic effect in the non-dosed eye” value (eye of subjects; non-dosed contralateral eye) was “no miotic effect”.
